≈ marks a conversion by molar mass, not a printed value. Where two headings read alike, the source gives them in different places.
Assays:
[1] = system: Staphylococcus aureus fluoroquinolone-resistant; assay: MIC, 25 ocular isolates, broth microdilution (Example 8); type: cell-based
Summary of the method: (§1)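 Broth microdilution in Mueller-Hinton broth, polypropylene plates, inoculum from 0.5 McFarland suspension diluted 0.05 ml into 5 ml; final test agent 64–0.0625 μg/ml (128–0.125 μg/ml for P. aeruginosa) in 0.01% acetic acid, 0.2% BSA diluent. Incubated 37° C overnight; MIC read visually as lowest concentration inhibiting visible growth.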

[2] = system: Staphylococcus epidermidis (Coagulase-negative Staphylococcus) fluoroquinolone-susceptible; assay: as above; type: cell-based
Summary of the method: as §1

## N=C(N)NCCCCC(=O)Nc1cc(C(F)(F)F)cc(NC(=O)c2cc(C(=O)Nc3cc(C(F)(F)F)cc(NC(=O)CCCCNC(=N)N)c3O[C@@H]3CCNC3)ncn2)c1O[C@@H]1CCNC1 [Oligomer 4]
[1]; 25 isolates, Row 13
  MIC50: 0.25 µg/mL (≈ 0.267 µM)
[1]; 25 isolates, Row 22
  MIC90: 0.5 µg/mL (≈ 0.534 µM)
[1]; 25 isolates, Summary of Results
  Range of MICs: 0.125 to 1.0 µg/mL
[1]; Staphylococcus aureus, 25 ocular isolates, read-out: Median MIC
  MIC: ≤ 0.25 µg/mL
[1]; Staphylococcus aureus, isolate 1—E504, read-out: MIC
  MIC: 0.25 µg/mL (≈ 0.267 µM)
[1]; Staphylococcus aureus, isolate 2—E475, read-out: MIC
  MIC: 0.25 µg/mL (≈ 0.267 µM)
[1]; Staphylococcus aureus, isolate 3—E442, read-out: MIC
  MIC: 0.25 µg/mL (≈ 0.267 µM)
[1]; Staphylococcus aureus, isolate 4—E427, read-out: MIC
  MIC: 0.5 µg/mL (≈ 0.534 µM)
[1]; Staphylococcus aureus, isolate 5—E425, read-out: MIC
  MIC: 0.25 µg/mL (≈ 0.267 µM)
[1]; Staphylococcus aureus, isolate 6—E424, read-out: MIC
  MIC: 0.25 µg/mL (≈ 0.267 µM)
[1]; Staphylococcus aureus, isolate 7—E417, read-out: MIC
  MIC: 1 µg/mL (≈ 1.07 µM)
[1]; Staphylococcus aureus, isolate 8—E407, read-out: MIC
  MIC: 0.25 µg/mL (≈ 0.267 µM)
[1]; Staphylococcus aureus, isolate 9—E401, read-out: MIC
  MIC: 0.25 µg/mL (≈ 0.267 µM)
[1]; Staphylococcus aureus, isolate 10—K1659, read-out: MIC
  MIC: 0.25 µg/mL (≈ 0.267 µM)
[1]; Staphylococcus aureus, isolate 11—E96, read-out: MIC
  MIC: 0.125 µg/mL (≈ 0.133 µM)
[1]; Staphylococcus aureus, isolate 12—E379, read-out: MIC
  MIC: 0.5 µg/mL (≈ 0.534 µM)
[1]; Staphylococcus aureus, isolate 13—E369, read-out: MIC
  MIC: 0.125 µg/mL (≈ 0.133 µM)
[1]; Staphylococcus aureus, isolate 14—E361, read-out: MIC
  MIC: 0.25 µg/mL (≈ 0.267 µM)
[1]; Staphylococcus aureus, isolate 15—E339, read-out: MIC
  MIC: 0.25 µg/mL (≈ 0.267 µM)
[1]; Staphylococcus aureus, isolate 16—E333, read-out: MIC
  MIC: 0.25 µg/mL (≈ 0.267 µM)
[1]; Staphylococcus aureus, isolate 17—E332, read-out: MIC
  MIC: 0.25 µg/mL (≈ 0.267 µM)
[1]; Staphylococcus aureus, isolate 18—E327, read-out: MIC
  MIC: 0.5 µg/mL (≈ 0.534 µM)
[1]; Staphylococcus aureus, isolate 19—E325, read-out: MIC
  MIC: 0.5 µg/mL (≈ 0.534 µM)
[1]; Staphylococcus aureus, isolate 20—K950, read-out: MIC
  MIC: 0.5 µg/mL (≈ 0.534 µM)
[1]; Staphylococcus aureus, isolate 21—K839, read-out: MIC
  MIC: 0.25 µg/mL (≈ 0.267 µM)
[1]; Staphylococcus aureus, isolate 22—K1679, read-out: MIC
  MIC: 0.25 µg/mL (≈ 0.267 µM)
[1]; Staphylococcus aureus, isolate 23—K1677, read-out: MIC
  MIC: 0.25 µg/mL (≈ 0.267 µM)
[1]; Staphylococcus aureus, isolate 24—K1672, read-out: MIC
  MIC: 0.25 µg/mL (≈ 0.267 µM)
[1]; Staphylococcus aureus, isolate 25—K1670, read-out: MIC
  MIC: 0.25 µg/mL (≈ 0.267 µM)
[1]; Staphylococcus aureus, n=25 per group, read-out: Median MIC
  MIC: 0.25 µg/mL (≈ 0.267 µM)
[1]; Staphylococcus aureus, 25 isolates, Summary of Results, read-out: MIC50
  MIC50: 0.25 µg/mL (≈ 0.267 µM)
[1]; Staphylococcus aureus, 25 isolates, Summary of Results, read-out: MIC90
  MIC90: 0.5 µg/mL (≈ 0.534 µM)
[1]; Staphylococcus aureus, 25 isolates, Summary of Results, read-out: Median MIC
  MIC: 0.25 µg/mL (≈ 0.267 µM)
[1]; n=25 per group
  MIC50: 0.25 µg/mL (≈ 0.267 µM)
  MIC90: 0.5 µg/mL (≈ 0.534 µM)
  Range of MICs: 0.125 to 1.0 µg/mL
[2]; 25 isolates sorted ascending, Row 1-25, <0.0625 was Replaced with 0.03125
  MIC, sorted list for MIC50 and MIC90 Determinations (QSSE-A): 0.25 µg/mL
[2]; 25 isolates, Row 13
  MIC50: 0.125 µg/mL (≈ 0.133 µM)
[2]; 25 isolates, Row 22
  MIC90: 0.25 µg/mL (≈ 0.267 µM)
[2]; 25 isolates, Summary of Results, <0.0625 was Replaced with 0.03125
  Range of MICs: 0.03125 to 0.25 µg/mL
[2]; Staphylococcus epidermidis, 25 ocular isolates, read-out: Median MIC
  MIC: ≤ 0.25 µg/mL
[2]; Staphylococcus epidermidis, isolate 1—E511, read-out: MIC
  MIC: 0.25 µg/mL (≈ 0.267 µM)
[2]; Staphylococcus epidermidis, isolate 2—E489, read-out: MIC
  MIC: 0.125 µg/mL (≈ 0.133 µM)
[2]; Staphylococcus epidermidis, isolate 3—E491, read-out: MIC
  MIC: 0.125 µg/mL (≈ 0.133 µM)
[2]; Staphylococcus epidermidis, isolate 4—E476, read-out: MIC
  MIC: 0.25 µg/mL (≈ 0.267 µM)
[2]; Staphylococcus epidermidis, isolate 5—E473, read-out: MIC
  MIC: 0.25 µg/mL (≈ 0.267 µM)
[2]; Staphylococcus epidermidis, isolate 6—E462, read-out: MIC
  MIC: 0.125 µg/mL (≈ 0.133 µM)
[2]; Staphylococcus epidermidis, isolate 7—E460, read-out: MIC
  MIC: 0.125 µg/mL (≈ 0.133 µM)
[2]; Staphylococcus epidermidis, isolate 8—E453, read-out: MIC
  MIC: 0.125 µg/mL (≈ 0.133 µM)
[2]; Staphylococcus epidermidis, isolate 9—E448, read-out: MIC
  MIC: 0.125 µg/mL (≈ 0.133 µM)
[2]; Staphylococcus epidermidis, isolate 10—E443, read-out: MIC
  MIC: < 0.0625 µg/mL
[2]; Staphylococcus epidermidis, isolate 11—E441, read-out: MIC
  MIC: < 0.0625 µg/mL
[2]; Staphylococcus epidermidis, isolate 12—E438, read-out: MIC
  MIC: 0.125 µg/mL (≈ 0.133 µM)
[2]; Staphylococcus epidermidis, isolate 13—E437, read-out: MIC
  MIC: 0.125 µg/mL (≈ 0.133 µM)
[2]; Staphylococcus epidermidis, isolate 14—E434, read-out: MIC
  MIC: 0.125 µg/mL (≈ 0.133 µM)
[2]; Staphylococcus epidermidis, isolate 15—E433, read-out: MIC
  MIC: 0.125 µg/mL (≈ 0.133 µM)
[2]; Staphylococcus epidermidis, isolate 16—E430, read-out: MIC
  MIC: < 0.0625 µg/mL
[2]; Staphylococcus epidermidis, isolate 17—E420, read-out: MIC
  MIC: 0.125 µg/mL (≈ 0.133 µM)
[2]; Staphylococcus epidermidis, isolate 18—E419, read-out: MIC
  MIC: 0.125 µg/mL (≈ 0.133 µM)
[2]; Staphylococcus epidermidis, isolate 19—E403, read-out: MIC
  MIC: 0.125 µg/mL (≈ 0.133 µM)
[2]; Staphylococcus epidermidis, isolate 20—E394, read-out: MIC
  MIC: 0.125 µg/mL (≈ 0.133 µM)
[2]; Staphylococcus epidermidis, isolate 21—E393, read-out: MIC
  MIC: 0.125 µg/mL (≈ 0.133 µM)
[2]; Staphylococcus epidermidis, isolate 22—E328, read-out: MIC
  MIC: 0.25 µg/mL (≈ 0.267 µM)
[2]; Staphylococcus epidermidis, isolate 23—E382, read-out: MIC
  MIC: 0.125 µg/mL (≈ 0.133 µM)
[2]; Staphylococcus epidermidis, isolate 24—E381, read-out: MIC
  MIC: 0.125 µg/mL (≈ 0.133 µM)
[2]; Staphylococcus epidermidis, isolate 25—E372, read-out: MIC
  MIC: 0.25 µg/mL (≈ 0.267 µM)
[2]; Staphylococcus epidermidis, n=25 per group, read-out: Median MIC
  MIC: 0.125 µg/mL (≈ 0.133 µM)
[2]; Staphylococcus epidermidis, 25 isolates, Summary of Results, read-out: MIC50
  MIC50: 0.125 µg/mL (≈ 0.133 µM)
[2]; Staphylococcus epidermidis, 25 isolates, Summary of Results, read-out: MIC90
  MIC90: 0.25 µg/mL (≈ 0.267 µM)
[2]; Staphylococcus epidermidis, 25 isolates, Summary of Results, read-out: Median MIC
  MIC: 0.125 µg/mL (≈ 0.133 µM)
[2]; n=25 per group
  MIC50: 0.125 µg/mL (≈ 0.133 µM)
  MIC90: 0.25 µg/mL (≈ 0.267 µM)
  Range of MICs: 0.03125 to 0.25 µg/mL

From US20130065818A1, “Arylamide Compounds And Compositions And Uses Thereof” (POLYMEDIX, priority 2006, published 2013)
